# Reference: PMC10294390 (BMC Complementary Medicine and Therapies, 2023)
# Legend:
# [1] = tested on: CRL1554 normal human fibroblast cells; test: MTT assay, cytotoxicity of PPCs on normal fibroblasts; conditions: PPCs 20-160 µM, 72 h
# Description: The cytotoxicity of a panel of 14 PPCs (Kmf, Cur, Que, Rsv, HHG, Hsp, BetA, IC3, Cmr, Sul, Irt, Lyc, Sil, and Snn) on CRL1554 normal human fibroblast cells was determined using the MTT assay [16]. CRL1554 cells were seeded (27 × 10^3 cells/well) into 96-well flat-bottomed plates and incubated at 37 °C for 18 h. Subsequently, the medium was removed, and the cells were washed with Hanks balanced salt solution (HBSS; 100 µl/well), and treated with various concentrations of PPCs (20, 40, 60, 80, 100, 120, 140 and 160 µM) for 72 h. The cells were then washed twice with HBSS, and 100 μl medium with 20 µl (5 mg/ml) MTT solution in PBS was added to each well and incubated at 37 °C for 4 h. The supernatants were aspirated, and 200 μL of dimethyl sulfoxide (DMSO) was added to dissolve the formazan crystals. Finally, the absorbance was measured using a multiwell spectrophotometer at two wavelengths (λ, 492 and 570 nm).
# SW1116 cells [2] = test: DNA fragmentation assay; type: cell-based, human; conditions: Sora 5 µM, PPC 200 and 400 µM, simultaneous combinations, 72 h, Fig. 8A, C
# Description: (§1) Induction of apoptosis was monitored using a DNA fragmentation assay following the manufacturer’s instructions (Apoptotic DNA Ladder Detection kit; Abcam). […] Cells were subsequently incubated at 37 °C for 72 h. The cells were then trypsinized, harvested, washed, pelleted, and lysed using Tris–EDTA (TE) lysis buffer (35 µl). Enzyme A solution (RNase; 5 µl) was added, followed by incubation at 37 °C for 10 min. Enzyme B solution (proteinase; 5 µl) was then added, followed by incubation at 50 °C for 30 min. Ammonium acetate solution (5 µl) and isopropanol (50 µl) were added to each sample and incubated at -20 °C for 10 min. Finally, the DNA was pelleted, washed with 0.5 ml 70% methanol, and dissolved in 30 µl DNA suspension buffer. The extracted DNA samples were loaded onto a 1.2% agarose gel, along with a loading marker (1 kb DNA ladder), and subjected to electrophoresis, using a running buffer containing 1.35 µg/ml ethidium bromide at 5 V/cm for 1 h. Ethidium bromide-stained DNA bands were visualized using transillumination with UV light.
# SW1116 cells [3] = test: Cell cycle analysis by flow cytometry (PI); type: cell-based, human; conditions: 72 h
# Description: (§2) The cells were subsequently processed using a DNA-prep kit and DNA-Prep EPICS workstation. The cells were treated with a non-ionic detergent to permeabilize the cell membrane, followed by propidium iodide (PI) and RNase, and incubated at 15–20 °C for 15 min. The cells were resuspended in binding buffer at a concentration of 3–10 × 10^6 cells/ml for optimal staining. Fluorescence was measured using a flow cytometer (Beckman Coulter, Inc.), and the percentage of cells in the different phases of the cell cycle was calculated using the Phoenix statistical software package, Advanced DNA cell cycle software (Phoenix Flow System).
# [4] = tested on: SW837 human rectum cancer cell line; test: MTT assay, single and schedule-dependent combined treatment; type: cell-based; conditions: PPC alone, MTT, Fig. 1C; for cytotoxicity mean: SW837
# Description: (§3) The plates were washed, and PPCs [Cur, Kmf, or Que (60 or 120 µM), or Rsv (40 or 80 µM)] were added, followed by incubation at 37 °C for 48 h. For inverted sequential treatment, PPC [Cur, Kmf, or Que (60 or 120 µM), or Rsv (40 or 80 µM)] was added and incubated at 37 °C for 24 h. […] Cell growth was monitored as previously described.
# [5] = tested on: SW1116 human colon cancer cell line; test: as above; type: cell-based; conditions: Homo sapiens, SW 1116, PPC alone, MTT, Fig. 1B
# Description: as §3
# SW1116 cells [6] = test: Annexin V-FITC/PI double staining, flow cytometry; type: cell-based, human; conditions: SW1116, 72 h
# Description: (§4) The levels of cell surface phosphatidylserine were determined to monitor the type of cell death and the kinetics of apoptosis. The CRC cell lines SW1116 and SW837 were seeded (2.5 × 10^5 cells/well) into 24-well plates and incubated in a non-CO2 incubator at 37 °C for 18 h. […] The cells were subsequently washed twice with HBSS and harvested using trypsin. Finally, the cells were double-stained using the Annexin V-FITC-Flous staining kit, according to the manufacturer’s instructions (Roche Diagnostic GmbH). Annexin V-Flous labelling solution containing Annexin V-FITC and PI (100 µl) was added to both the treated and control cell groups and incubated at 15–20 °C for 15 min. The cells (1 × 10^6 cells/ml) were then resuspended in binding buffer, and fluorescence was monitored using flow cytometry (FC500; Beckman Coulter, Inc.).
# SW1116 and SW837 cells = test: Mitochondrial membrane potential (MMP) analysis, MitoNIR dye, flow cytometry; type: cell-based, human; conditions: Cur 400 µM alone; 72 h; cell line not stated
# Description: The inner mitochondrial membrane is rich in negatively charged glycoproteins and is therefore negatively charged. The accumulation of high concentrations of protons outside of the inner membrane establishes the transmembrane potential. The MMP was monitored using the NIR Mitochondrial Membrane Potential Assay kit (Abcam) according to the manufacturer’s protocol. Briefly, cells (2.5 × 10^5 cells/well) were seeded into 24-well plates and incubated in a non-CO2 incubator at 37 °C for 18 h. […] MitoNIR Dye (200X; 5 µl/ml) was added to each sample, followed by incubation at 37 °C for 15–30 min. The cells were subsequently pelleted and resuspended in 1 ml assay buffer. Flow cytometry, in the FL4 channel (λExcitation/λEmission, 635/660 nm), was used to monitor the fluorescence intensity.
# SW837 cells [7] = test: DNA fragmentation assay; type: cell-based, human; conditions: Sora 5 µM, PPC 200 and 400 µM, sequential combinations, 72 h, Fig. 8B, D
# Description: as §1
# SW837 cells [8] = test: Cell cycle analysis by flow cytometry (PI); type: cell-based, human; conditions: 72 h
# Description: as §2
# SW837 cells [9] = test: Annexin V-FITC/PI double staining, flow cytometry; type: cell-based, human; conditions: SW837, 72 h
# Description: as §4
smiles,measurement,setting,value
"CC(C)=CCC/C(C)=C/C=C/C(C)=C/C=C/C(C)=C/C=C/C=C(C)/C=C/C=C(C)/C=C/C=C(\C)CCC=C(C)C [Lyp, lycopene]",cytotoxicity,[1],39.7–66.6%
"O=c1c(O)c(-c2ccc(O)c(O)c2)oc2cc(O)cc(O)c12 [Que, quercetin]",induction of apoptosis as indicated by DNA fragmentation,SW1116 cells [2],marked induction of apoptosis
same,cytotoxicity,[1],0.0–16.2%
same,cytotoxicity,[1]; listed as quercetin,≤ 20%
same,%G0/G1 (cells in G0/G1 phase),SW1116 cells [3]; PPC 200 µM alone,39.6%
same,%G2/M (cells in G2/M phase),SW1116 cells [3]; PPC 200 µM alone,15.0%
same,%S (cells in S phase),SW1116 cells [3]; PPC 200 µM alone,45.0%
same,%G0/G1 (cells in G0/G1 phase),SW1116 cells [3]; PPC 400 µM alone,38.5%
same,%G2/M (cells in G2/M phase),SW1116 cells [3]; PPC 400 µM alone,14.1%
same,%S (cells in S phase),SW1116 cells [3]; PPC 400 µM alone,47.2%
same,%SubG1 (cells in sub G1),SW1116 cells [3]; PPC 400 µM alone,8.4%
same,cytotoxicity mean,[4],19 ± 3%
same,IC50,[5],160 µM
same,"B1, percentage of necrotic cells",SW1116 cells [6]; PPC 200 µM alone,4.5%
same,"B2, percentage of late apoptotic cells",SW1116 cells [6]; PPC 200 µM alone,24.5%
same,"B4, percentage of early apoptotic cells",SW1116 cells [6]; PPC 200 µM alone,4.2%
same,"B1, percentage of necrotic cells",SW1116 cells [6]; PPC 400 µM alone,31.1%
same,"B2, percentage of late apoptotic cells",SW1116 cells [6]; PPC 400 µM alone,34.1%
same,"B4, percentage of early apoptotic cells",SW1116 cells [6]; PPC 400 µM alone,0.8%
"O=c1ccc2ccccc2o1 [Cmr, coumarin]",cytotoxicity,[1],7.4–11.34%
"COc1cc(/C=C/C(=O)CC(=O)/C=C/c2ccc(O)c(OC)c2)ccc1O [Cur, curcumin]",change in MMP (shift of MitoNIR red fluorescence),SW1116 and SW837 cells,no change in MMP
same,DNA fragmentation,SW837 cells [7],increased levels of DNA fragmentation
same,induction of apoptosis as indicated by DNA fragmentation,SW1116 cells [2],marked induction of apoptosis
same,cytotoxicity,[1],0.0%
same,cytotoxicity,[1]; listed as curcumin,≤ 20%
same,%G0/G1 (cells in G0/G1 phase),SW837 cells [8]; PPC 200 µM alone,49.1%
same,%G2/M (cells in G2/M phase),SW837 cells [8]; PPC 200 µM alone,6.2%
same,%S (cells in S phase),SW837 cells [8]; PPC 200 µM alone,44.6%
same,%SubG1 (cells in sub G1),SW837 cells [8]; PPC 200 µM alone,14.7%
same,%G0/G1 (cells in G0/G1 phase),SW837 cells [8]; PPC 400 µM alone,58.1%
same,%G2/M (cells in G2/M phase),SW837 cells [8]; PPC 400 µM alone,2.4%
same,%S (cells in S phase),SW837 cells [8]; PPC 400 µM alone,39.4%
same,%SubG1 (cells in sub G1),SW837 cells [8]; PPC 400 µM alone,2.9%
same,%G0/G1 (cells in G0/G1 phase),SW1116 cells [3]; PPC 200 µM alone,49.1%
same,%G2/M (cells in G2/M phase),SW1116 cells [3]; PPC 200 µM alone,13.6%
same,%S (cells in S phase),SW1116 cells [3]; PPC 200 µM alone,37.1%
same,%G0/G1 (cells in G0/G1 phase),SW1116 cells [3]; PPC 400 µM alone,28.5%
same,%G2/M (cells in G2/M phase),SW1116 cells [3]; PPC 400 µM alone,11.3%
same,%S (cells in S phase),SW1116 cells [3]; PPC 400 µM alone,60%
same,%SubG1 (cells in sub G1),SW1116 cells [3]; PPC 400 µM alone,12%
same,IC50,"[4]; Homo sapiens, SW837, SW837, read-out: IC50",150 µM
same,IC50,[5],60 µM
same,"B1, percentage of necrotic cells",SW837 cells [9]; PPC 200 µM alone,60.9%
same,"B2, percentage of late apoptotic cells",SW837 cells [9]; PPC 200 µM alone,26.6%
same,"B4, percentage of early apoptotic cells",SW837 cells [9]; PPC 200 µM alone,0.3%
same,"B1, percentage of necrotic cells",SW837 cells [9]; PPC 400 µM alone,67.9%
same,"B2, percentage of late apoptotic cells",SW837 cells [9]; PPC 400 µM alone,32.3%
same,"B4, percentage of early apoptotic cells",SW837 cells [9]; PPC 400 µM alone,0.0%
same,"B1, percentage of necrotic cells",SW1116 cells [6]; PPC 200 µM alone,5.9%
same,"B2, percentage of late apoptotic cells",SW1116 cells [6]; PPC 200 µM alone,11.5%
same,"B4, percentage of early apoptotic cells",SW1116 cells [6]; PPC 200 µM alone,4.6%
same,"B1, percentage of necrotic cells",SW1116 cells [6]; PPC 400 µM alone,18.2%
same,"B2, percentage of late apoptotic cells",SW1116 cells [6]; PPC 400 µM alone,35.2%
same,"B4, percentage of early apoptotic cells",SW1116 cells [6]; PPC 400 µM alone,3.8%
"C=C(C)[C@@H]1CC[C@]2(C(=O)O)CC[C@]3(C)[C@H](CC[C@@H]4[C@@]5(C)CC[C@H](O)C(C)(C)[C@@H]5CC[C@]43C)[C@@H]12 [BetA, betulinic acid]",cytotoxicity,[1],69–97.5%
"COC(=O)C[C@](O)(CCCC(C)(C)O)C(=O)O[C@@H]1C(OC)=C[C@]23CCCN2CCc2cc4c(cc2[C@H]13)OCO4 [HHG, homoharringtonine]",cytotoxicity,[1],99–100%
"O=c1c(O)c(-c2ccc(O)cc2)oc2cc(O)cc(O)c12 [Kmf, kaempferol]",DNA fragmentation,SW837 cells [7],increased levels of DNA fragmentation
same,cytotoxicity,[1],0.0–1.1%
same,cytotoxicity,[1]; listed as kaempferol,≤ 20%
same,%G0/G1 (cells in G0/G1 phase),SW837 cells [8]; PPC 200 µM alone,60.4%
same,%G2/M (cells in G2/M phase),SW837 cells [8]; PPC 200 µM alone,5.9%
same,%S (cells in S phase),SW837 cells [8]; PPC 200 µM alone,33.6%
same,%SubG1 (cells in sub G1),SW837 cells [8]; PPC 200 µM alone,1.3%
same,%G0/G1 (cells in G0/G1 phase),SW837 cells [8]; PPC 400 µM alone,59.9%
same,%G2/M (cells in G2/M phase),SW837 cells [8]; PPC 400 µM alone,6.3%
same,%S (cells in S phase),SW837 cells [8]; PPC 400 µM alone,33.6%
same,%SubG1 (cells in sub G1),SW837 cells [8]; PPC 400 µM alone,2.7%
same,cytotoxicity mean,[4],21 ± 3.5%
same,IC50,[5],100 µM
same,"B1, percentage of necrotic cells",SW837 cells [9]; PPC 200 µM alone,4.9%
same,"B2, percentage of late apoptotic cells",SW837 cells [9]; PPC 200 µM alone,20.5%
same,"B4, percentage of early apoptotic cells",SW837 cells [9]; PPC 200 µM alone,2.5%
same,"B1, percentage of necrotic cells",SW837 cells [9]; PPC 400 µM alone,36.8%
same,"B2, percentage of late apoptotic cells",SW837 cells [9]; PPC 400 µM alone,44.4%
same,"B4, percentage of early apoptotic cells",SW837 cells [9]; PPC 400 µM alone,2.8%
